The results in this text go back to the SangsterLogP compilation.

Each structure is given as a SMILES string. Square brackets hold non-standard residues; d marks the D form. Peptide text beside a SMILES is read from it. NMeF = CN[CH](Cc1ccccc1)C(=O)O

Data set [1] is described as follows: method code SF-HPLC, from DOI: 10.1248/cpb.38.1906, PMID: 2268893. Particulars: pH 6.9.
A short description of data set [2]: method code SF-HPLC, from DOI: 10.1002/jps.2600830805, PMID: 7983590. Particulars: pH 12.2.
The conditions of data set [3]: pH 6.5.
Assay in data set [4]: not given
This is another data set of the same source.

Data set [5] in a line: method code SF-FL, from DOI: 10.1021/acs.jmedchem.5b00420, PMID: 26263187.
Assay in data set [6]: not given
The source holds these as a separate data set.

Data set [7] is described as follows: method code SF-AS, from DOI: 10.1016/s0960-894x(99)00527-2, PMID: 10571171. Particulars: pH 7.0.
The conditions of data set [8]: pH 6.5. The source holds these as a separate data set.
A short description of data set [9]: method code SF-HPLC, from DOI: 10.1021/js9504200, PMID: 8742941. To be noted: pH 7.4.
Assay in data set [10]: not given
The source holds these as a separate data set.

Data set [11] can be described thus: method code SF, from DOI: 10.1021/jm00262a020, PMID: 4716184.
A short description of data set [12]: method code SF-HPLC, from DOI: 10.1002/jccs.199500138.
Assay in data set [13]: not given
This is another data set of the same source.

Data set [14] can be described thus: method code SF-AS, from DOI: 10.1016/s0026-895x(25)13330-0, PMID: 3162758. Particulars: pH 4.5.
Assay in data set [15]: not given
The source holds these as a separate data set.

Data set [16] is described as follows: method code SF, from Moerlein, M.; Dischino, D.; Raymond, N.; Weitl, L.; Welch, J. (1982). Factors affecting the cerebral uptake of gallium complexes. J Labelled Comp Radiopharm, 19(11-12)1421-1422. To be noted: pH 7.0.
Data set [17] is described as follows: method code SF-HPLC, from DOI: 10.1016/j.ijpharm.2013.10.039, PMID: 24184034. To be noted: pH 7.0.
Assay in data set [18]: not given
This is another data set of the same source.

The nature of data set [19]: method code SF-AS, from DOI: 10.1016/j.ejmech.2010.02.047, PMID: 20227799. To be noted: pH 7.4.
Data set [20] can be described thus: method code SF, from DOI: 10.3139/113.110173.
The nature of data set [21]: method code SF-HPLC, from DOI: 10.1023/a:1016059008464, PMID: 8899834.
Assay in data set [22]: not given
The source holds these as a separate data set.

Data set [23] is described as follows: method code SF, from DOI: 10.1021/jm00079a001, PMID: 1732531. To be noted: pH 7.4.
Data set [24] in a line: method code SF-HPLC, from DOI: 10.1016/0378-5173(91)90200-8. To be noted: pH 7.4.
A short description of data set [25]: method code SF, from DOI: 10.1021/jm00088a007, PMID: 1588555. To be noted: pH 7.4.
Data set [26] is described as follows: method code SF-AS, from DOI: 10.1016/j.ejmech.2009.02.028, PMID: 19321234.
A short description of data set [27]: method code SF-AS, from DOI: 10.1021/jm00371a014, PMID: 6716401. Particulars: pH 7.4.
Data set [28] is described as follows: method code SF-RC, from DOI: 10.1023/a:1015867608405, PMID: 1614980. To be noted: pH 7.4.

In turn, `CCOC(=O)OCCC(SC(=O)OCC)=C(C)N(C=O)CC1=C(C(=O)OCOC(=O)C(C)(C)C)N2C(=O)C(NC(=O)C(=NOC)c3csc(N)n3)C2SC1` (centres undefined) yielded a logD in data set [1] of 3.34.
In data set [2], `CCCCC(NC(C)=O)C(=O)NC1NCCCCC(C(N)=O)NC(=O)C(Cc2c[nH]c3ccccc23)NC(=O)C(CCCC(=N)N)NC(=O)C(Cc2ccccc2)NC(=O)C(Cc2cnc[nH]2)NC1=O` (centres undefined) had a log distribution coefficient (logD) of 1.1.
With `CCCCC(OC(Cc1ccccc1)C(=O)N1CCC(OCOC)CC1)C(=O)NC(CC1CCCCC1)C(O)CC(C(=O)NCc1nn[nH]n1)C(C)C` (centres undefined), the pH-dependent lipophilicity (logD) in data set [3] came to 2.9.
`Nc1cccc(CN2C(=O)N(c3cccc(C(=O)Nc4cnccn4)c3)C(Cc3ccccc3)C(O)C(O)C2Cc2ccccc2)c1` (centres undefined) yielded a logP of 3.77.
In [4], `COc1cc(C)c(S(=O)(=O)NC(CC(=O)NC2OC(CO)C(O)C(O)C2NC(C)=O)C(=O)NC(Cc2ccc(C(=N)N)cc2)C(=O)N2CCCCC2)c(C)c1C` (centres undefined) displayed a log partition coefficient (logP) of -1.5.
`COc1cccc2c1C(=O)c1c(O)c3c(c(O)c1C2=O)CC(O)(C(=O)CO)CC3OC1CC(NC(=O)C2CCC(CN3C(=O)CC(SCCN)C3=O)CC2)C(O)C(C)O1` (centres undefined) gave a logP in [5] of -0.02.
In data set [6], `CC(C)Cc1ccc(C(Nc2cccc(C(=O)c3cn(CCCC(=O)O)c4ccccc34)c2)c2ccc(CC(C)C)cc2)cc1` came in with a log partition coefficient (logP) of 3.
Regarding `O=C(NCCCC(CO)(CCCNC(=O)c1ccc2cccnc2c1O)CCCNC(=O)c1ccc2cccnc2c1O)c1ccc2cccnc2c1O`, in data set [7], the logD worked out at 1.2.
`CCN1CC(C(O)C(CC2CCCCC2)NC(=O)C(Cc2cc[nH]n2)NC(=O)C(CC(=O)N2CCOCC2)Cc2ccccc2)OC1=O` (centres undefined): the pH-dependent lipophilicity (logD) in data set [8] was 2.52.
`O=C(OCCCCCC1CCSS1)c1cc(=O)c2c(OCC(O)COc3cccc4oc(C(=O)OCCCCCC5CCSS5)cc(=O)c34)cccc2o1` (centres undefined) returned a log distribution coefficient (logD) in [9] of 2.87.
Compound `Cc1ccccc1NC(=O)Nc1ccc(CC(=O)N[C@@H](CCCCNC(=O)/C=C/c2cccnc2)C(=O)N[C@@H](CCCC(=O)O)C(=O)NC2(C(N)=O)CCCCC2)cc1` showed a logP in data set [10] of 3.26.
The compound `CC[C@@H](C(=O)[C@@H](C)[C@@H](O)[C@H](C)CCc1ccc(C)c(O)c1C(=O)O)[C@H]1O[C@](CC)([C@H]2CC[C@](O)(CC)[C@H](C)O2)C[C@@H]1C` displayed a logP in data set [11] of 2.85.
With `CC(=O)O[C@@H]1CC[C@]2(C)C3=CC[C@]4(C)[C@@H]([C@H](C)CC/C=C(\C)C(=O)O)C[C@@H](OC(C)=O)[C@@]4(C)C3=CC[C@H]2C1(C)C`, the log partition coefficient (logP) in [12] stood at 2.74.
For `COC1C(OC(C)=O)CC(=O)OC(C)CC=CC=CC(O)C(C)CC(CC=O)C1OC1OC(C)C(OC2C[C@@](C)(O)C(OC(=O)CC(C)C)C(C)O2)C(N(C)C)C1O` (some centres undefined), in [13], the lipophilicity (logP) was 2.39.
As to `COc1cc([C@@H]2c3cc4c(cc3[C@@H](O[C@@H]3O[C@@H]5CO[C@@H](c6cccs6)O[C@H]5[C@H](O)[C@H]3O)[C@H]3COC(=O)[C@H]23)OCO4)cc(OC)c1O`, the logD in data set [14] amounted to 1.8.
Consider `Cc1c(O)cccc1C(=O)N[C@@H](CSc1ccccc1)[C@H](O)CN1C[C@H]2CCCC[C@H]2C[C@H]1C(=O)NC(C)(C)C`, for which the logP in data set [15] worked out at 4.
The compound `CCCCCCN(CCCCN(CCCN(CCCCCC)C(=O)c1cccc(O)c1O)C(=O)c1cccc(O)c1O)C(=O)c1cccc(O)c1O` gave a logD in data set [16] of -1.52.
Regarding `CC(=O)O[C@@H]1C(=O)[C@]23C[C@H]2C[C@H]2OC[C@@]2(OC(C)=O)[C@H]3[C@H](OC(=O)c2ccccc2)[C@]2(O)C[C@H](OC(=O)[C@H](O)[C@@H](NC(=O)OC(C)(C)C)c3ccccc3)C(C)=C1C2(C)C`, the logD in data set [17] is 2.06.
Consider `CCOc1ccc(N2CCN(CC(O)CC(Cc3ccccc3)C(=O)NC3c4ccccc4CC3O)C(C(=O)NC(C)(C)C)C2)cn1` (centres undefined), for which, in data set [18], the lipophilicity (logP) is 3.62.
For the compound `COc1ccc(-c2oc3cc(C(C)=O)cc(OC)c3c(=O)c2-c2ccc(-c3ccccc3)cc2)cc1OC`, the logD in data set [19] amounted to 3.95.
The compound `CCCCCCCCCCCOCCOCCOCCOCCOCCOCCOCCOCCOCCOCCOCCOCCOCCOCCOCCOCCOCCOCCOCCOCCOCCOCCOCCOCCOCCOCCOCCOCCO` yielded a lipophilicity (logP) in [20] of 0.31.
In data set [21], `CC(C)CCC[C@@H](C)[C@H]1CC[C@H]2[C@@H]3CC[C@H]4C[C@@H](CCC=C(c5cc(Cl)c(O)c(C(=O)O)c5)c5cc(Cl)c(O)c(C(=O)O)c5)CC[C@]4(C)[C@H]3CC[C@]12C` gave a logP of 6.94.
`CCCN(CCC)C(=O)Cc1c(-c2ccc(OC(=O)NCCc3ccc(O)c(O)c3)cc2)nc2c(Cl)cc(Cl)cn12` yielded a logP in data set [22] of 4.79.
Take `C=CC[C@H](NC(=O)[C@@H](Cc1ccccc1)NS(=O)(=O)N1CCN(C)CC1)C(=O)NC(CC1CCCCC1)C(=O)C(F)(F)C(=O)NCCN1CCOCC1` (some centres undefined): the log distribution coefficient (logD) in data set [23] came out at 2.73.
In the case of `CCC(C(=O)OCc1ccc(COC(=O)C(CC)C(COC(=O)C2CC2)Cc2cncn2C)cc1)C(COC(=O)C1CC1)Cc1cncn1C` (centres undefined), the logD in data set [24] was 4.2.
As to `CCCC[C@H](O[C@@H](Cc1ccccc1)C(=O)N1CCC(OCOC)CC1)C(=O)NC(CC1CCCCC1)C(O)CC(C(=O)NCCCN1CCOCC1)C(C)C` (some centres undefined), in data set [25], the logD is 4.3.
For `CCCCCCCCCCCCCC(=O)NC(C(=O)Nc1ccn(C2OC(CO)C(O)C2O)c(=O)n1)c1ccc(O)cc1` (centres undefined), in data set [26], the logP was 0.9.
Consider `COc1cccc2c1C(=O)c1c(O)c3c(c(O)c1C2=O)CC(O)(C(C)=O)CC3OC1CC(N2CCOCC2C#N)C(O)C(C)O1` (centres undefined), for which, in data set [27], the pH-dependent lipophilicity (logD) is 2.59.
Compound `CC(=O)NC(Cc1ccccc1)C(=O)N(C)C(Cc1ccccc1)C(=O)N(C)C(Cc1ccccc1)C(N)=O` (centres undefined) (Ac-Phe-[NMeF]-[NMeF]-NH2; configuration not given here) came in with a pH-dependent lipophilicity (logD) in [28] of 2.53.
